Earlier results on one compound are cited in US10632442B2, “Apparatus for a mass production of monodisperse biodegradable polymer-based microspheres and a multi-channel forming device incorporatable therein” (INVENTAGE LAB, INC., priority 2016, dated 2020).

The conditions of this series: in vivo.

What is called AUC is the area under the concentration-time curve, a measure of exposure. Usually Cmax stands for the highest concentration seen after dosing. Broadly, the Tmax is the time at which the peak concentration occurs. In the case of `CO/N=C1\C[C@]2(C[C@@H]3C[C@@H](C/C=C(\C)C[C@@H](C)/C=C/C=C4\CO[C@@H]5[C@H](O)C(C)=C[C@@H](C(=O)O3)[C@]45O)O2)O[C@H](/C(C)=C/C(C)C)[C@H]1C` [Moxidectin], the AUC was 217 ng·days/mL, the Cmax is 5.1 ng/mL, the time to peak (Tmax) is 7 to 10 days and the T½ is 35 days.
